Measurements taken from patent US20250339400A1, “ARTESUNATE POWDERS, PHARMACEUTICAL COMPOSITIONS AND METHODS OF MANUFACTURE” (AMIVAS, INC., priority 2024, published 2025).

Columns and labels:
[1] = Angle of repose, USP <1174>; assay type: physicochemical
Procedure: Angle of repose analyses were performed on artesunate powders based upon USP <1174> and under controlled relative humidity conditions. Polytetrafluoroethylene (PTFE) funnels with 8, 10 and 12 mm openings (i.e., Funnel 1, Funnel 2 and Funnel 3, respectively) were used in conjunction with a stainless steel receiving cylinder (Ø=30 mm). Powder samples were placed in the funnel while the funnel opening was closed with a glass slide. Once all the sample powder was loaded in the funnel, the glass slide was removed to allow powder to land on the cylinder below. The top and side of the funnel were tapped to enable the sample powder to drop down. The funnel height was maintained approximately 2-4 cm from the top of the powder pile to minimize the impact of falling powder on the tip of the cone. After the powder cone was built, height of the material forming the cone (h) and the radius (r) of the base were measured by a metal ruler. The angle of repose (θ) was calculated as follows: tan (θ)=h/r. Results were only considered valid when a symmetrical cone of powder was formed. Triplicate tests were attempted for each size of the funnels with the same amount of material being used.

[2] = Tapped density, Caleva tapped density tester; assay type: physicochemical; conditions: 35% RH exposure ~24 h; after tapping
[3] = SEM images of caking / agglomeration; assay type: physicochemical
Procedure: SEM images were collected using a Phenom XL Desktop SEM equipped with a CeB6 electron source (see FIG. 6). Phenom User Interface version 1.4 was used to acquire and save the images. Detailed image parameters are recorded in the footer of each image. Powder sample preparation for proper SEM results is known to those skilled in the art, and mainly relies on a proper monolayer of particles. These can be prepared with: the flick method, wherein a cotton swab is used to disperse particles onto a sample support by the “flick of a finger”; drop casting, where liquid solvents transfer particles onto a sample stub; or the dish method, where particles are spread over the area of a petri dish or similar flat surface using a spatula. A Nebula Particle Dispenser may also be used to prepare a uniform layer of powder. Although it is desirable to avoid agglomeration, the example as described herein sought to determine when agglomeration occurs at particular humidity levels. The samples tested herein were prepared with the flick method.

[4] = Static charge, Newtry static meter; assay type: physicochemical
Procedure: Static charge measurements were performed using a Newtry static meter. The powders were accumulated onto a piece of weigh paper and the surface gently leveled. The static meter was held approximately 25 millimeters from the surface of the material to obtain a reading. Three replicate measurements were taken, and an average was calculated.

[5] = Bulk density, graduated cylinder; assay type: physicochemical
[6] = Tapped density, Caleva tapped density tester; assay type: physicochemical; conditions: after tapping
Procedure: The artesunate powders were then passed through a No. 18, 1.00 mm sieve and then added to a 10 mL Cole Parmer graduated cylinder. The graduated cylinder containing the artesunate powders was placed on a Caleva tapped density tester. The samples in the graduated cylinder were then subjected to the following sequence: 10 taps, 500 additional taps, 1250 additional taps, and 1250 additional taps. A volume was taken at the end of each set of taps, and when the volume was consistent for two sets in a row, the measurement was terminated. This final volume was then used to calculate the tapped density. Two replicate measurements were taken, and an average value was calculated.

[7] = cited from earlier work
[8] = Dynamic Vapor Sorption (DVS) moisture absorbance; assay type: physicochemical; conditions: 25 °C
Procedure: The instruments were calibrated with standard weights and a sodium bromide standard for humidity. One sample was equilibrated 50% RH for at least 5 days prior to analysis, while the other sample was equilibrated to 20% RH for at least 5 days prior to analysis. Approximately 10 to 20 mg of the powder samples were loaded into metal-coated quartz pans for analysis. The samples were analyzed at 25° C. in 10% RH steps from 5 to 95% RH (adsorption cycle) and from 95 to 5% RH (desorption cycle). The movement from one step to the next occurred either after satisfying the equilibrium criterion of 0.01% weight change in 30 minutes or, if the equilibrium criterion was not met, after 90 minutes. The percent weight change values were calculated using Microsoft Excel®2016. The results of this example are provided in Tables 6 and 7 and depicted in FIG. 1 (Sample Equilibrated to 20% RH) and FIG. 2 (Sample Equilibrated to 50% RH).

[9] = cited from earlier work; remark: listed apart in the source
[10] = 10% RH exposure, at least five days
[11] = 20% RH exposure, at least five days
[12] = 30% RH exposure, at least five days
[13] = 40% RH exposure, at least five days
[14] = 50% RH exposure, at least five days

C[C@H]1[C@H](OC(=O)CCC(=O)O)O[C@@H]2O[C@@]3(C)CC[C@H]4[C@H](C)CC[C@@H]1[C@@]24OO3 [artesunate powder, 4-oxo-4-[[(1R,4S,5R,8S,9R,10S,12R,13R)-1,5,9-trimethyl-11,14,15,16-tetraoxatetracyclo[10.3.1.0^4,13.0^8,13]hexadecan-10-yl]oxy]butanoic acid]
angle of repose ([1]; 35% RH, Average of Funnels 1-3): 39 degrees
angle of repose ([1]; 35% RH, Funnel 1 (8 mm opening)): 35 degrees
angle of repose ([1]; 35% RH, Funnel 2 (10 mm opening)): 38 degrees
angle of repose ([1]; 35% RH, Funnel 3 (12 mm opening)): 45 degrees
flow properties based on USP 1174 ([1]; 35% relative humidity): acceptable
angle of repose ([1]; 50% RH, Average of Funnels 1-3): 43 degrees
angle of repose ([1]; 50% RH, Funnel 1 (8 mm opening)): 42 degrees
angle of repose ([1]; 50% RH, Funnel 2 (10 mm opening)): 45 degrees
angle of repose ([1]; 50% RH, Funnel 3 (12 mm opening)): 42 degrees
flow property based on USP 1174 ([1]; 50% relative humidity): passable but may hang up
Bulk Density 3 (Tapped Densities of Powder Samples) [2]: 0.337 g/mL
caking / agglomeration in SEM images ([3]; 20% RH (FIG. 6)): strong caking, or agglomeration
caking in SEM images ([3]; 35% RH (FIG. 7)): less caking
agglomeration / caking in SEM images ([3]; 50% RH (FIG. 8)): significant agglomeration, or caking
Average Static Reading [4, 10]: 0.36 kV
Static Reading 1 [4, 10]: 0.40 kV
Static Reading 2 [4, 10]: 0.38 kV
Static Reading 3 [4, 10]: 0.30 kV
Average Static Reading ([4]; 11% RH): 0.36 kV
Average Static Reading [4, 11]: 0.13 kV
Static Reading 1 [4, 11]: 0.12 kV
Static Reading 2 [4, 11]: 0.13 kV
Static Reading 3 [4, 11]: 0.13 kV
Average Static Reading ([4]; 22% RH): 0.13 kV
Average Static Reading [4, 12]: −0.04 kV
Static Reading 1 [4, 12]: −0.04 kV
Static Reading 2 [4, 12]: −0.04 kV
Static Reading 3 [4, 12]: −0.04 kV
Average Static Reading [4, 13]: 0.01 kV
Static Reading 1 [4, 13]: 0.02 kV
Static Reading 2 [4, 13]: 0.01 kV
Static Reading 3 [4, 13]: 0.00 kV
Average Static Reading [4, 14]: −0.05 kV
Static Reading 1 [4, 14]: −0.05 kV
Static Reading 2 [4, 14]: −0.05 kV
Static Reading 3 [4, 14]: −0.05 kV
Average Bulk Density ([5]; 20% RH exposure ~24 h): 0.203 g/mL
Bulk Density 1 ([5]; 20% RH exposure ~24 h): 0.193 g/mL
Bulk Density 2 ([5]; 20% RH exposure ~24 h): 0.231 g/mL
Average Bulk Density ([5]; 50% RH exposure ~24 h): 0.203 g/mL
Bulk Density 1 ([5]; 50% RH exposure ~24 h): 0.200 g/mL
Bulk Density 2 ([5]; 50% RH exposure ~24 h): 0.208 g/mL
Average Bulk Density (Tapped Densities of Powder Samples) ([6]; 20% RH exposure ~24 h): 0.303 g/mL
Bulk Density 1 (Tapped Densities of Powder Samples) ([6]; 20% RH exposure ~24 h): 0.307 g/mL
Bulk Density 2 (Tapped Densities of Powder Samples) ([6]; 20% RH exposure ~24 h): 0.318 g/mL
Bulk Density 3 (Tapped Densities of Powder Samples) ([6]; 20% RH exposure ~24 h): 0.283 g/mL
Average Bulk Density (Tapped Densities of Powder Samples) ([6]; 35% RH exposure ~24 h): 0.318 g/mL
Bulk Density 1 (Tapped Densities of Powder Samples) ([6]; 35% RH exposure ~24 h): 0.317 g/mL
Bulk Density 2 (Tapped Densities of Powder Samples) ([6]; 35% RH exposure ~24 h): 0.300 g/mL
Average Bulk Density (Tapped Densities of Powder Samples) ([6]; 50% RH exposure ~24 h): 0.317 g/mL
Bulk Density 1 (Tapped Densities of Powder Samples) ([6]; 50% RH exposure ~24 h): 0.320 g/mL
Bulk Density 2 (Tapped Densities of Powder Samples) ([6]; 50% RH exposure ~24 h): 0.312 g/mL
Bulk Density 3 (Tapped Densities of Powder Samples) ([6]; 50% RH exposure ~24 h): 0.319 g/mL
solubility in organic solvents ([7]; organic solvents, such as acetone and methanol): soluble
solubility in water ([7]; water): slightly soluble
% change (DVS) ([8]; sample equilibrated to 20% RH, RH step 95, total 360 min): 100.08%
% change (DVS) ([8]; sample equilibrated to 20% RH, adsorption, RH step 5, total 0 min): 100.00%
% change (DVS) ([8]; sample equilibrated to 20% RH, adsorption, RH step 5, total 60 min): 100.00%
% change (DVS) ([8]; sample equilibrated to 20% RH, adsorption, RH step 15, total 90 min): 100.02%
% change (DVS) ([8]; sample equilibrated to 20% RH, adsorption, RH step 25, total 120 min): 100.02%
% change (DVS) ([8]; sample equilibrated to 20% RH, adsorption, RH step 35, total 150 min): 100.03%
% change (DVS) ([8]; sample equilibrated to 20% RH, adsorption, RH step 45, total 180 min): 100.03%
% change (DVS) ([8]; sample equilibrated to 20% RH, adsorption, RH step 55, total 210 min): 100.03%
% change (DVS) ([8]; sample equilibrated to 20% RH, adsorption, RH step 65, total 240 min): 100.04%
% change (DVS) ([8]; sample equilibrated to 20% RH, adsorption, RH step 75, total 270 min): 100.05%
% change (DVS) ([8]; sample equilibrated to 20% RH, adsorption, RH step 85, total 300 min): 100.06%
% change (DVS) ([8]; sample equilibrated to 20% RH, desorption, RH step 5, total 630 min): 100.04%
% change (DVS) ([8]; sample equilibrated to 20% RH, desorption, RH step 15, total 600 min): 100.04%
% change (DVS) ([8]; sample equilibrated to 20% RH, desorption, RH step 25, total 570 min): 100.04%
% change (DVS) ([8]; sample equilibrated to 20% RH, desorption, RH step 35, total 540 min): 100.04%
% change (DVS) ([8]; sample equilibrated to 20% RH, desorption, RH step 45, total 510 min): 100.05%
% change (DVS) ([8]; sample equilibrated to 20% RH, desorption, RH step 55, total 480 min): 100.06%
% change (DVS) ([8]; sample equilibrated to 20% RH, desorption, RH step 65, total 450 min): 100.06%
% change (DVS) ([8]; sample equilibrated to 20% RH, desorption, RH step 75, total 420 min): 100.06%
% change (DVS) ([8]; sample equilibrated to 20% RH, desorption, RH step 85, total 390 min): 100.07%
% change (DVS) ([8]; sample equilibrated to 50% RH, RH step 95, total 360 min): 100.08%
% change (DVS) ([8]; sample equilibrated to 50% RH, adsorption, RH step 5, total 0 min): 100.00%
% change (DVS) ([8]; sample equilibrated to 50% RH, adsorption, RH step 5, total 30 min): 100.01%
% change (DVS) ([8]; sample equilibrated to 50% RH, adsorption, RH step 15, total 60 min): 100.01%
% change (DVS) ([8]; sample equilibrated to 50% RH, adsorption, RH step 25, total 90 min): 100.01%
% change (DVS) ([8]; sample equilibrated to 50% RH, adsorption, RH step 35, total 120 min): 100.01%
% change (DVS) ([8]; sample equilibrated to 50% RH, adsorption, RH step 45, total 150 min): 100.02%
% change (DVS) ([8]; sample equilibrated to 50% RH, adsorption, RH step 55, total 180 min): 100.02%
% change (DVS) ([8]; sample equilibrated to 50% RH, adsorption, RH step 65, total 240 min): 100.03%
% change (DVS) ([8]; sample equilibrated to 50% RH, adsorption, RH step 75, total 270 min): 100.04%
% change (DVS) ([8]; sample equilibrated to 50% RH, adsorption, RH step 85, total 300 min): 100.05%
% change (DVS) ([8]; sample equilibrated to 50% RH, desorption, RH step 5, total 660 min): 100.02%
% change (DVS) ([8]; sample equilibrated to 50% RH, desorption, RH step 15, total 630 min): 100.02%
% change (DVS) ([8]; sample equilibrated to 50% RH, desorption, RH step 25, total 600 min): 100.02%
% change (DVS) ([8]; sample equilibrated to 50% RH, desorption, RH step 35, total 570 min): 100.02%
% change (DVS) ([8]; sample equilibrated to 50% RH, desorption, RH step 45, total 540 min): 100.03%
% change (DVS) ([8]; sample equilibrated to 50% RH, desorption, RH step 55, total 510 min): 100.04%
% change (DVS) ([8]; sample equilibrated to 50% RH, desorption, RH step 65, total 480 min): 100.05%
% change (DVS) ([8]; sample equilibrated to 50% RH, desorption, RH step 75, total 450 min): 100.05%
% change (DVS) ([8]; sample equilibrated to 50% RH, desorption, RH step 85, total 420 min): 100.06%
stability under basic and acidic conditions ([9]; basic and acidic conditions): unstable
degradation by moisture and heat ([9]; moisture and heat (Agnihotri J. et al, 2013)): susceptible to degradation
